Measured values from paper PMC7617104 (Biochemical Journal, 2024).
“And” between values parts separate entries of the source, which are not always exact repeats. Equal entries are not always repeated. Where two headings read alike, the source gives them in different places.

Key:
PI3Kα^WT [1] = molecular target: T1, PI3Kα^WT (Homo sapiens, UniProt P42336); test: BLI membrane binding assay (immobilised liposomes); conditions: for effect on P2pY-activated PI3Kα^WT membrane interaction (BLI wavelength shift): 1 µM PI3Kα^WT, 300 s, GSK2126458 4 µM, PIK-75 20 µM, 6 4 µM, 7 10 µM, GDC0032 10 µM, AS252424 10 µM, AMP-PNP 2 mM with 5 mM Mg2+; for Bmax (binding capacity) of PI3Kα^WT membrane interaction in presence of inhibitor: pY activated, inhibitor:protein 4:1, Mean ± SEM
T1 construct: using full length PI3Kα^WT and PI3Kα^H1047R up to 1 μM; made in house; host or cells: Sf9 insect cells (baculovirus)
Description: BLI is a label-free dip-and-read method that uses wavelength changes in reflected incidental white light to report on changes in thickness of the lipid vesicles immobilised on a biosensor from protein binding.
(§1) BLI experiments were carried out with a BLItz® System (ForteBIO) using aminopropylsilane (APS) biosensors. The APS biosensors (ForteBIO #18-5045) were hydrated for 15–20 min in either Tris or HEPES liposome buffer. The program option used was Advanced Kinetics. Liposome membrane preparation was performed using a 0.5 mg/ml liposome solution of PIP2: PS: PE: PC: C: S (Avanti polar lipids) in the mass percentages of 5: 20: 45: 15: 10: 5. Liposomes without PIP2 were prepared as PS: PE: PC: C: S in the percentage of […]. Liposomes without PS were prepared as PIP2: PE: PC: C: S in the percentage of 5: 65: 15: 10: 5. […] P2pY and inhibitor, or DMSO only were also added to achieve a final protein concentration of 200 μg/ml, a pY concentration of 10 μM, and total DMSO content of 3%. The mixture was incubated at room temperature for 10 min prior to the protein association experiments. The membrane coated biosensors were first dipped in Buffer D containing 3% DMSO for 30 s to set an initial baseline, and transferred to the protein in the presence or absence of inhibitor. Protein binding was followed for 300 s, and then the biosensors were dipped in Buffer D with 3% DMSO again for 300 s for protein dissociation. […] PI3Kα^M1043I used 0.125, 0.25, 0.5, 1 and 1.57 µM. The results of liposome loading and protein association were then analysed and graphed using GraphPad Prism 6.
Target sequence in this assay (P42336 whole entry): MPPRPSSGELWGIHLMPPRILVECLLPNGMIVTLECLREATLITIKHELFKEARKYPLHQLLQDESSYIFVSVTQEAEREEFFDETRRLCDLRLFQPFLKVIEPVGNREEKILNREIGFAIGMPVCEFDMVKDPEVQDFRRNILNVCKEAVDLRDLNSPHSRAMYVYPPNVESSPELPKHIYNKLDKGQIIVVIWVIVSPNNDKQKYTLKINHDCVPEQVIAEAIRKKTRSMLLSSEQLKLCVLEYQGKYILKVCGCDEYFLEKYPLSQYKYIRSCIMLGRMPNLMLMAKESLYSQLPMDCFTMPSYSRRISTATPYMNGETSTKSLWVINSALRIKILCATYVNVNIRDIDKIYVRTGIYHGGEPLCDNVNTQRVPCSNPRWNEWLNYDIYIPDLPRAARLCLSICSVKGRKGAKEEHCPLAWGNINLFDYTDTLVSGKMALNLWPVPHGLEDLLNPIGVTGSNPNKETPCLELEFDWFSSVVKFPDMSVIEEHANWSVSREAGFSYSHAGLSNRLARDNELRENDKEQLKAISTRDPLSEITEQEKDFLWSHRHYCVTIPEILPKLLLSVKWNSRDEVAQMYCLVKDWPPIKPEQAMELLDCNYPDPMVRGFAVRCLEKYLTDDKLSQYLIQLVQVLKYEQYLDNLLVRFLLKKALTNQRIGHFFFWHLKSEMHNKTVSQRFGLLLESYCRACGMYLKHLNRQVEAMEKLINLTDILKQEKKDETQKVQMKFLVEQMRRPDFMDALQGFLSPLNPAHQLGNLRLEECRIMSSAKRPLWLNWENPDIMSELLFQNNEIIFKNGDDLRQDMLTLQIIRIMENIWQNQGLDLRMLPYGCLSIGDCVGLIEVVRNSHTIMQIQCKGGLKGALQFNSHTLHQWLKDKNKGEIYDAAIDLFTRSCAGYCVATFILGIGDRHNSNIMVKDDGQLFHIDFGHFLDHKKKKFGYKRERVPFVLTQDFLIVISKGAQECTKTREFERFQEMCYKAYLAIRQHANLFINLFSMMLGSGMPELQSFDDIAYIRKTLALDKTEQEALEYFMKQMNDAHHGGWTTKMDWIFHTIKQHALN
Target sequence in this assay (P27986 2-724 partner): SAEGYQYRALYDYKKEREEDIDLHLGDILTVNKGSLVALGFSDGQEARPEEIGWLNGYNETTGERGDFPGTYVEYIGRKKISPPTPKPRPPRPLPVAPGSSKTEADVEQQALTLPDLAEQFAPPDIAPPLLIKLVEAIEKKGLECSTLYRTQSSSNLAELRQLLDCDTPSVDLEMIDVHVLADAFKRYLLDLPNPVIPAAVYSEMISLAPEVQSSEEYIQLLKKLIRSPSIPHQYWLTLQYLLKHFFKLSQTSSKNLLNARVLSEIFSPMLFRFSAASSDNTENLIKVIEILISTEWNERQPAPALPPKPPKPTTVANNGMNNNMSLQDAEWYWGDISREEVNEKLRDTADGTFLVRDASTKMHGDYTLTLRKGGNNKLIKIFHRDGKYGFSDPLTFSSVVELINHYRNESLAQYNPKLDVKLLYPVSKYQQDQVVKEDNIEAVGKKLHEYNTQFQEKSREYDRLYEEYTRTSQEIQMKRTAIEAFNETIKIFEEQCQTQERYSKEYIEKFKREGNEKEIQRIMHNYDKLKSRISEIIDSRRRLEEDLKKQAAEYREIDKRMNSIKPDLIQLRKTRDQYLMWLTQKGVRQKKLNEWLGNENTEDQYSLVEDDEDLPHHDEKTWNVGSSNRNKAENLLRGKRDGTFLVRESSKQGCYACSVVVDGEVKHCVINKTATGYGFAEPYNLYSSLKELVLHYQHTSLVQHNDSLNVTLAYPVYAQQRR

PI3Kβ^WT (p110β/p85α) = molecular target: T2, PI3Kβ^WT (p110β/p85α) (Homo sapiens, UniProt P42338); test: PI3K HTRF lipid kinase IC50 determination; type: biochemical
T2 construct: made in house; host or cells: Sf9 insect cells (baculovirus)
T2 sequence (P42338 whole entry, species assumed): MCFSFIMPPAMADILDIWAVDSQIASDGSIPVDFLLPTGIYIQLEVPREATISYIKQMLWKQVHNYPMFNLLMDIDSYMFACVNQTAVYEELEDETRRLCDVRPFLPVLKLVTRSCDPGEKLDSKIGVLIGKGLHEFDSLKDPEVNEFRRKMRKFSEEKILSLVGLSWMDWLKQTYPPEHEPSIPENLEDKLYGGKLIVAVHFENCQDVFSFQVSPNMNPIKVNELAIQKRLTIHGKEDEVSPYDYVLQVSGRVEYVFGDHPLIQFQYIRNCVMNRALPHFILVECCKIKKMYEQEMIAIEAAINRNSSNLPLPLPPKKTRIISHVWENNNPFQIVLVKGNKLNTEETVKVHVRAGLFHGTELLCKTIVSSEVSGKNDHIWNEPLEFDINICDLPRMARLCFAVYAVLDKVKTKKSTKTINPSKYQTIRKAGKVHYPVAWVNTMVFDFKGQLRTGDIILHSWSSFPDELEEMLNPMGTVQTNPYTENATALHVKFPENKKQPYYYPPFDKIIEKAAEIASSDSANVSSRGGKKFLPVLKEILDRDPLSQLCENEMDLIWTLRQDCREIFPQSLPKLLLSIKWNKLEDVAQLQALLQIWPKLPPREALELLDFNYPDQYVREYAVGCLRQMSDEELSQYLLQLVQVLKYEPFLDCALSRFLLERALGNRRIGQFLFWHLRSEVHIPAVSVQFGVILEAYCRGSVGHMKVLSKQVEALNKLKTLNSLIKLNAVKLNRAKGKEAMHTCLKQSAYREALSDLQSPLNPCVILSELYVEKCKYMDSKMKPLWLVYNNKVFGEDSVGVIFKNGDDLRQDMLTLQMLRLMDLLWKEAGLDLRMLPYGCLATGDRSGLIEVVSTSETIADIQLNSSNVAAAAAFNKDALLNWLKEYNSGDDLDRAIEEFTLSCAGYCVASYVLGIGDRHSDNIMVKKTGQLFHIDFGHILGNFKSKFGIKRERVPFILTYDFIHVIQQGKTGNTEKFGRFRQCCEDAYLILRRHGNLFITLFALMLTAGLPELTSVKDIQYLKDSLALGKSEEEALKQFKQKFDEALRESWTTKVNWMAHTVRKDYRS
T2 sequence (P27986 whole entry partner, species assumed): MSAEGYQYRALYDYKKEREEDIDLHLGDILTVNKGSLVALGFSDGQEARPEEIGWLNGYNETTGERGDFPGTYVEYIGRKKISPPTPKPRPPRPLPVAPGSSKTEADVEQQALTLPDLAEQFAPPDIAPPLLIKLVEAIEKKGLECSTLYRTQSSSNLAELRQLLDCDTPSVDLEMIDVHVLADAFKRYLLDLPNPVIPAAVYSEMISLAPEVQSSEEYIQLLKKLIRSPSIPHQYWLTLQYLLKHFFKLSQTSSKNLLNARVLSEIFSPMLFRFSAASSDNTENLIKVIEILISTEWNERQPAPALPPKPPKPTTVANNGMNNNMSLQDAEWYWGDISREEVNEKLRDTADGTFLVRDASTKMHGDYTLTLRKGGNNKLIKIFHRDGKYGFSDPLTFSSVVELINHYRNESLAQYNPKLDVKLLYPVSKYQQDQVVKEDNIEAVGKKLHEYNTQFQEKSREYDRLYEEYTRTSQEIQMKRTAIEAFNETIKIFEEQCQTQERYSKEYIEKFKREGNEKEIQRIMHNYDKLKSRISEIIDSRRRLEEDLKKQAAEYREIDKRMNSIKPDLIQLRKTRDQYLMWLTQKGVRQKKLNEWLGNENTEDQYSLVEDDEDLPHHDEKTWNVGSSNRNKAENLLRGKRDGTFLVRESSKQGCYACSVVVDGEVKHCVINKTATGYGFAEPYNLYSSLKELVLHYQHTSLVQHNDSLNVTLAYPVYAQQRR
Description: (§2) IC50 values were determined using the PI3K homogenous time-resolved fluorescence assay (Merck Millipore, #33-016) following the manufacturer's instructions as previously described. […] Data was graphed and analysed with Graphpad Prism 6, nonlinear regression with log(inhibitor) vs. response and constraints set at 0% and 100%.
(§3) (1 picture or pasted object on this page, not shown here)
(§4) Enzymes were used at PI3KαWT 40 ng/ml, PI3KβWT as either 400 ng/ml or 300 ng/ml,
(§5) and PI3K δWT was 65 ng/ml. Plates were read on a PHERAStar HTS microplate reader

p110γ [2] = molecular target: T3, p110γ (Homo sapiens, UniProt P48736); test: PI3K HTRF lipid kinase IC50 determination; type: biochemical; conditions: Table S1, this study; a = N=2 individual data shown, b = N=1; read-out: IC50 p110γ WT
T3 construct: made in house; host or cells: Sf9 insect cells (baculovirus)
T3 sequence (P48736 whole entry, species assumed): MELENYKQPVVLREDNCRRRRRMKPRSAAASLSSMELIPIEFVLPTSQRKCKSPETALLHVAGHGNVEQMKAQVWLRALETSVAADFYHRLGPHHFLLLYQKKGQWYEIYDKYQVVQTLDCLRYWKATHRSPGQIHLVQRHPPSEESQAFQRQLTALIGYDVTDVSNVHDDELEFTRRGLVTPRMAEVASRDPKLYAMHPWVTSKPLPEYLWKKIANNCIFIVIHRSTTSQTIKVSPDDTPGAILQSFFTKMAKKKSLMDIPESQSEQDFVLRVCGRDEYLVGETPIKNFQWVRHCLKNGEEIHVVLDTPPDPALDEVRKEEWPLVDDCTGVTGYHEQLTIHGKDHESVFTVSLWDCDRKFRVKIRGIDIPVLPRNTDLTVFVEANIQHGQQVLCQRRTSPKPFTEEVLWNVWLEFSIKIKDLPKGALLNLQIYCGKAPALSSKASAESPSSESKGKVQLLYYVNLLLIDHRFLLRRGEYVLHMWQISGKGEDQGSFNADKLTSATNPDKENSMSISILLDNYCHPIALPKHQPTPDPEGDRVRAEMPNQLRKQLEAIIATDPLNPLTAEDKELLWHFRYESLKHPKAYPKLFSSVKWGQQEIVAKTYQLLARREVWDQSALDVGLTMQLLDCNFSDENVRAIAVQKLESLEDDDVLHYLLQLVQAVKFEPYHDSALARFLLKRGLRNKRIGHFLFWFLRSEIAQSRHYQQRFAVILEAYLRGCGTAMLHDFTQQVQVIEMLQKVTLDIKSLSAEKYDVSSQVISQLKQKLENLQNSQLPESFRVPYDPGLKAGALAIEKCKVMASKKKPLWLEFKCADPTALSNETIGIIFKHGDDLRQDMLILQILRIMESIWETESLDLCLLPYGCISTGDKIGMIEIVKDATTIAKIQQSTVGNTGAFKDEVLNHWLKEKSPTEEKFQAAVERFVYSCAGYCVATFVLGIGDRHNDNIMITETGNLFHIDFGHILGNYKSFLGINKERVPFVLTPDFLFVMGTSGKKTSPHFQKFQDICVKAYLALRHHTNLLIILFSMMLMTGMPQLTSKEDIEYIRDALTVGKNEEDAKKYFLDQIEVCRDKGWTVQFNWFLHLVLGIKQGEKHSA
Description: as §2, §3

PI3Kδ^WT = molecular target: T4, PI3Kδ^WT (Homo sapiens, UniProt O00329); test: BLI membrane binding assay (immobilised liposomes); conditions: 4 µM inhibitor, 1 µM enzyme, +pY, 300 s
T4 construct: made in house; host or cells: Sf9 insect cells (baculovirus)
Description: (§6) Figure 6. […] The data are shown as Mean ± SD; PI3Kα^WT +pY n = 7; PI3Kα^WT +pY + GSK n = 5; PI3Kα^WT −pY n = 4; PI3Kα^WT −pY + GSK n = 3. (B) Effect of GSK on the BLI wavelength shift (λ) on membrane binding by PI3Kα^WT, the PI3Kα^E545K oncogenic mutant, class IA PI3Kβ^WT and class IA PI3Kδ^WT enzymes. In all experiments inhibitors were tested at 4 µM with 1 µM of the different enzymes and membrane binding was followed by BLI for 300 s.
as §1

PI3Kβ^WT = molecular target: T5, PI3Kβ^WT (Homo sapiens, UniProt P42338); test: BLI membrane binding assay (immobilised liposomes); conditions: 4 µM inhibitor, 1 µM enzyme, +pY, 300 s
T5 construct: made in house; host or cells: Sf9 insect cells (baculovirus)
Description: as §6, §1

PI3Kα^E545K = PI3Kα^E545K (Homo sapiens, UniProt P42336, E545K); test: BLI membrane binding assay (immobilised liposomes); conditions: 4 µM inhibitor, 1 µM enzyme, +pY, 300 s
Description: as §6, §1

PI3Kα C420R mutant = PI3Kα C420R mutant (Homo sapiens, UniProt P42336, C420R); test: BLI membrane binding assay, concentration response; conditions: P2pY activated; protein to GSK2126458 ratio 1:4
Description: as §1, with “6. […]” for “6.”
(§7) membrane binding parameters. (A) Concentration response curves for PI3Kα oncogenic mutant proteins. Data is shown as the Mean ± SEM (number of biosensors for each data point is n≥3). A one site-specific binding model was used to fit the data. The […]
as §3

PI3Kα G1049R mutant = PI3Kα G1049R mutant (Homo sapiens, UniProt P42336, G1049R); test: BLI membrane binding assay, concentration response; conditions: P2pY activated; protein to GSK2126458 ratio 1:4
Description: as §1, with “6. […]” for “6.”
as §7, §3

PI3Kα G106V mutant = PI3Kα G106V mutant (Homo sapiens, UniProt P42336, G106V); test: BLI membrane binding assay, concentration response; conditions: P2pY activated; protein to GSK2126458 ratio 1:4
Description: as §1, with “6. […]” for “6.”
as §7, §3

PI3Kα N345K mutant = PI3Kα N345K mutant (Homo sapiens, UniProt P42336, N345K); test: BLI membrane binding assay, concentration response; conditions: P2pY activated; protein to GSK2126458 ratio 1:4
Description: as §1, with “6. […]” for “6.”
as §7, §3

PI3Kα M1043I mutant = PI3Kα M1043I mutant (Homo sapiens, UniProt P42336, M1043I); test: BLI membrane binding assay, concentration response; conditions: P2pY activated; protein to GSK2126458 ratio 1:4
PI3Kα M1043I mutant, sequence (P42336 whole entry M1043I): as the sequence (P42336 whole entry) above, with M1043I counted along it
PI3Kα M1043I mutant, sequence (P27986 whole entry partner): as the sequence (P27986 whole entry partner, species assumed) above
Description: as §1, with “6. […]” for “6.”
as §7, §3

PI3Kα G118D mutant = PI3Kα G118D mutant (Homo sapiens, UniProt P42336, G118D); test: BLI membrane binding assay, concentration response; conditions: P2pY activated; protein to GSK2126458 ratio 1:4
Description: as §1, with “6. […]” for “6.”
as §7, §3

PI3Kα^WT [3] = molecular target: T1, PI3Kα^WT; test: FRET membrane binding assay (dansyl-PS liposomes); conditions: P1pY-activated 0.5 μM PI3Kα^WT; inhibitor 31.25 nM to 2 μM
Target sequence in this assay (P42336 whole entry): as the sequence (P42336 whole entry) above
Target sequence in this assay (P27986 whole entry partner): as the sequence (P27986 whole entry partner, species assumed) above
Description: The FRET-based assay directly monitors the interaction by measuring energy transfer from tryptophan residues in PI3Kα to dansyl-labelled phosphatidylserine (PS) lipids embedded within the synthetic membrane.
Liposomes were prepared with PIP2: phosphatidylserine (PS): phosphatidlyethanol (PE): phosphatidylcholine (PC): Cholesterol (C): Sphingomyelin (S): Dansyl PS (Avanti polar lipids) in the percentage of 5: 20: 35: 15: 10: 5: 10. Inhibitors were solubilised in 100% DMSO, and were diluted to 10% DMSO with Buffer C (30 mM HEPES pH 7.5, 50 mM NaCl), before being serially diluted to desired concentrations in 30 mM HEPES pH 7.5, 50 mM NaCl with 10% DMSO. […] Compounds were used at 5-fold the final concentration and 2 μl was added to 5 μl of enzyme in a 384-well plate, the plate was sealed and the mixture was allowed to equilibrate at room temperature for 10 min with shaking at 450 rpm. Liposomes were then added to the mixture to give a final liposome concentration of 50 μg/ml and a final reaction volume of 10 μl, and the plate was incubated at room temperature for 10 min with shaking at 450 rpm. […] The FRET signal was measured as I-I0 (intensity at 520 nm for protein and liposome solution — intensity at 520 nm for liposome only solution). […] The compound only I-I0 was then subtracted from the I-I0 of the protein-compound complex. […] Data were then graphed and analysed with GraphPad Prism 6.

PI3Kα^H1047R = molecular target: T6, PI3Kα^H1047R (Homo sapiens, UniProt P42336, H1047R); test: BLI membrane binding assay (immobilised liposomes); conditions: pY activated, inhibitor:protein 4:1, Mean ± SEM
T6 construct: Full length PI3Kα^WT or PI3Kα^H1047R was diluted with Buffer D; made in house; host or cells: Sf9 insect cells (baculovirus)
T6 sequence (P42336 whole entry H1047R): as the sequence (P42336 whole entry) above, with H1047R counted along it
T6 sequence (P27986 whole entry partner): as the sequence (P27986 whole entry partner, species assumed) above
Description: as §1

p110γ [4] = molecular target: T3, p110γ; design: method as in earlier work; conditions: Table S1, rows marked #; ref S1; read-out: IC50 p110γ WT; cited from earlier work
PI3Kα^WT (p110α/p85α) = molecular target: T7, PI3Kα^WT (p110α/p85α) (Homo sapiens, UniProt P42336); test: PI3K homogenous time-resolved fluorescence (HTRF) lipid kinase IC50 determination; type: biochemical; conditions: HTRF assay using PIP2 as substrate; Mean ± SD, n=2; enzyme 40 ng/ml; read-out: IC50 PI3Kα (Table S3)
T7 construct: made in house; host or cells: Sf9 insect cells (baculovirus)
T7 sequence (P42336 whole entry): as the sequence (P42336 whole entry) above
T7 sequence (P27986 whole entry partner): as the sequence (P27986 whole entry partner, species assumed) above
Description: as §2, §3, §4, §5

PI3Kδ^WT (p110δ/p85α) = molecular target: T8, PI3Kδ^WT (p110δ/p85α) (Homo sapiens, UniProt O00329); test: PI3K HTRF lipid kinase IC50 determination; type: biochemical; conditions: HTRF assay using PIP2 as substrate; Mean ± SD, n=2; enzyme 65 ng/ml; read-out: IC50 PI3K (third column of Table S3, probably PI3Kδ)
T8 construct: made in house; host or cells: Sf9 insect cells (baculovirus)
Description: as §2, §3, §4, §5

Nc1ncnc2c1ncn2[C@@H]1O[C@H](COP(=O)(O)OP(=O)(O)NP(=O)(O)O)[C@@H](O)[C@H]1O [AMP-PNP]
effect on P2pY-activated PI3Kα^WT membrane interaction (BLI wavelength shift) (PI3Kα^WT [1]): could promote the enzymes membrane interaction

O=C1NC(=O)/C(=C/c2ccc(-c3ccc(F)cc3O)o2)S1 [AS252424]
effect on P2pY-activated PI3Kα^WT membrane interaction (BLI wavelength shift) (PI3Kα^WT [1]): some evidence of positive modulation

Cc1nc(-c2cn3c(n2)-c2ccc(-c4cnn(C(C)(C)C(N)=O)c4)cc2OCC3)n(C(C)C)n1 [GDC0032]
IC50 (PI3Kβ^WT (p110β/p85α); Table S1, this study, a = N=2 individual data shown, b = N=1, read-out: IC50 PI3Kβ WT): 64 nM and 113 nM | IC50 (p110γ [2]): 4.6 nM and 3.2 nM

COc1ncc(-c2ccc3nccc(-c4ccnnc4)c3c2)cc1NS(=O)(=O)c1ccc(F)cc1F [GSK2126458]
effect on PI3Kδ^WT membrane interaction (BLI) (PI3Kδ^WT): insensitive to GSK2126458 | effect on PI3Kβ^WT membrane interaction (BLI) (PI3Kβ^WT): insensitive to GSK2126458 | effect on PI3Kα^E545K membrane interaction (BLI) (PI3Kα^E545K): insensitive to regulation by GSK2126458 | effect on C420R membrane interaction (BLI) (PI3Kα C420R mutant): sensitive to GSK2126458, with effects on the membrane interaction capacity | effect on G1049R membrane interaction capacity (BLI) (PI3Kα G1049R mutant): also sensitive to GSK2126458 | effect on G106V membrane interaction capacity (BLI) (PI3Kα G106V mutant): largest decrease in capacity of all those tested | effect on N345K membrane interaction (BLI) (PI3Kα N345K mutant): sensitive to GSK2126458, with effects on the membrane interaction capacity | effect on M1043I membrane interaction capacity (BLI) (PI3Kα M1043I mutant): also sensitive to GSK2126458 | effect on G118D membrane interaction (BLI) (PI3Kα G118D mutant): changes in both capacity and affinity | maximum reduction in FRET signal (PI3Kα^WT [3]): 85% | Bmax (binding capacity) of PI3Kα^H1047R membrane interaction in presence of inhibitor (PI3Kα^H1047R; liposomes 0% PIP2 + 20% PS): 4.3 ± 0.3 λ nm | Bmax (binding capacity) of PI3Kα^H1047R membrane interaction in presence of inhibitor (PI3Kα^H1047R; liposomes 5% PIP2 + 0% PS): 4.6 ± 0.3 λ nm | Bmax (binding capacity) of PI3Kα^H1047R membrane interaction in presence of inhibitor (PI3Kα^H1047R; liposomes 5% PIP2 + 20% PS): 5.0 ± 0.2 λ nm | Bmax (binding capacity) of PI3Kα^WT membrane interaction in presence of inhibitor (PI3Kα^WT [1]; liposomes 0% PIP2 + 20% PS): 1.5 ± 0.1 λ nm | Bmax (binding capacity) of PI3Kα^WT membrane interaction in presence of inhibitor (PI3Kα^WT [1]; liposomes 5% PIP2 + 20% PS): 1.9 ± 0.1 λ nm

Cc1ccc([N+](=O)[O-])cc1S(=O)(=O)N(C)/N=C/c1cnc2ccc(Br)cn12 [PIK-75]
IC50 (p110γ [4]): 43 ± 21 nM

FC(F)c1nc2ccccc2n1-c1nc(N2CCOCC2)nc(N2CCOCC2)n1 [ZSTK474, 2-(difluoromethyl)-1-[4,6-di(4-morpholinyl)-1,3,5-triazin-2-yl]-1H-benzimidazole]
maximum reduction in FRET signal (PI3Kα^WT [3]): 50%

COc1ncc(-c2ccc3cccc(-c4ccnnc4)c3c2)cc1NS(=O)(=O)c1ccc(F)cc1F [compound 6]
IC50 (PI3Kα^WT (p110α/p85α)): 460 ± 170 nM

COc1ncc(-c2ccc(-c3cnc4c(c3)CN(C)C4=O)s2)cc1NS(=O)(=O)c1ccc(F)cc1F [compound 7]
IC50 (PI3Kδ^WT (p110δ/p85α)): 8600 ± 2100 nM | IC50 (PI3Kβ^WT (p110β/p85α); HTRF assay using PIP2 as substrate, Mean ± SD, n=2, enzyme 400 or 300 ng/ml, read-out: IC50 PI3K (second column of Table S3, probably PI3Kβ)): 242000 ± 308000 nM | effect on P2pY-activated PI3Kα^WT membrane interaction (BLI wavelength shift) (PI3Kα^WT [1]): retained the ability to decrease | IC50 (PI3Kα^WT (p110α/p85α)): 16800 ± 9100 nM
